Read-outs that look alike come from different tables or passages of the source.
Tests used:
Format in all cases: cell-based
IL-8 secretion = experiment: Inhibitory activity on Bradykinin B1 agonist-induced secretion of IL-8 in human IMR-90 cells; settings: 30 min compound, stimulated with 0.1 μM Lys-[Des-Arg9]Bradykinin and 0.1 μM Sar-[D-Phe8]-des-Arg9-Bradykinin for 5 hours
Source text: (§1) Inhibitory activity on Bradykinin B1 agonist-induced secretion of IL-6 and IL-8 in human IMR-90 cells
(§2) The effect of the compound examples on secretion of the cytokine IL-6 and IL-8 has been investigated in the human foetal lung fibroblast IMR-90 cell line. Here the induction of the cytokine secretion was induced by the Bradykinin B1 agonists Lys-[Des-Arg9]Bradykinin (CAS 71800-36-7, Tocris Bioscience) and Sar-[D-Phe8]-des-Arg9-Bradykinin (CAS 126959-88-4, Tocris Bioscience) leading to the activation of the Bradykinin B1-driven signalling pathway. This effect is indicative for a strong anti-inflammatory mode of action in kinin driven inflammation.
(§3) IMR-90 cells were cultured in Eagle's Minimum Essential Medium (EMEM) containing 2 mM L-glutamine, 1 g/L glucose, 1.5 g/L NaHCO3, 1 mM sodium pyruvate and non-essential amino acids (ATCC, 30-2003™) supplemented with 10% FBS (Biochrom, S0615) and 50 U/mL Penicillin, 50 μg/mL Streptomycin (PAA, P11-010). The assay was performed in EMEM and a cell density of […] IMR-90 cells/96-well. The compound examples have been serial diluted in 100% DMSO and evaluated at 8 different concentrations within the range of 3 nM and 10 μM and a final DMSO concentration of 0.4%. The IMR-90 cells have been incubated with the respective concentration of the compound for 30 min. The enhanced secretion of IL-6 and IL-8 was induced by the stimulation of these cells with 0.1 μM Lys-[Des-Arg9]Bradykinin (Tocris, catalogue no. 3225) and 0.1 μM Sar-[D-Phe8]-des-Arg9-Bradykinin (Tocris, catalogue no. 3230) for 5 hours at 37° C. and 5% C02. Further, cells have been treated with Lys-[Des-Arg9]Bradykinin and Sar-[D-Phe8]-des-Arg9-Bradykinin as neutral control and with 0.1% DMSO as inhibitor control. The amount of IL-6 and IL-8 in the supernatant was determined using the Human Prolnflammatory Panel II (4-Plex) (MSD, K15025B) according to manufacturer's instruction. Briefly, supernatants were added onto assay plates and incubated at room temperature for 1-2 h with vigorous shaking at 600 rpm. Detection antibodies were then added onto the supernatants and incubated at room temperature for an additional 1-2 h with vigorous shaking at 600 rpm. Plates were washed three times with phosphate-buffered saline (PBS; 137 mM NaCl, 2.7 mM KCl, 6.5 mM Na2HPO4, 1.7 mM KH2P04) containing 0.05% Tween-20 (Bio-Rad, 161-0781) and electrochemiluminescence detected using the MSD Sector Imager 6000 plate reader. The cell viability was measured using the CellTiter-Glo Luminescent Assay (Promega, G7571) following the manufacturers protocol. Briefly, the CellTiter-Glo Reagent was diluted with PBS (1:1) and added directly to cells. After incubation and shaking for 10 minutes luminescent signal was measured which is proportional to the amount of ATP present.
(§4) The effect of the compound on the amount of secreted cytokine has been calculated as 100/(measured cytokine concentration of neutral control-measured cytokine concentration of inhibitor control)*(measured cytokine concentration of compound dose-measured cytokine concentration of inhibitor control). IC50 values are determined using 4-parameter-fit.
(§5) The compound examples were tested in triplicates per plate and the inhibitory activity was determined as the relation between neutral and inhibitor control in percent. IC50 values were calculated using the 4-parameter logistic model.

IL-6 secretion = experiment: Inhibitory activity on Bradykinin B1 agonist-induced secretion of IL-6 in human IMR-90 cells; settings: 30 min compound, stimulated with 0.1 μM Lys-[Des-Arg9]Bradykinin and 0.1 μM Sar-[D-Phe8]-des-Arg9-Bradykinin for 5 hours
Source text: as §1, §2, §3, §4, §5

[1] = target: T1, human Bradykinin B1 receptor (Homo sapiens, UniProt P46663); experiment: Calcium flux Assay (FLIPR) with recombinant CHO-K1 cells expressing human Bradykinin B1 receptor, in presence (hB1 IC50) or absence (hB1 free IC50) of 0.1% BSA
T1 construct: host or cells: CHO-K1
T1 sequence (P46663 1-353): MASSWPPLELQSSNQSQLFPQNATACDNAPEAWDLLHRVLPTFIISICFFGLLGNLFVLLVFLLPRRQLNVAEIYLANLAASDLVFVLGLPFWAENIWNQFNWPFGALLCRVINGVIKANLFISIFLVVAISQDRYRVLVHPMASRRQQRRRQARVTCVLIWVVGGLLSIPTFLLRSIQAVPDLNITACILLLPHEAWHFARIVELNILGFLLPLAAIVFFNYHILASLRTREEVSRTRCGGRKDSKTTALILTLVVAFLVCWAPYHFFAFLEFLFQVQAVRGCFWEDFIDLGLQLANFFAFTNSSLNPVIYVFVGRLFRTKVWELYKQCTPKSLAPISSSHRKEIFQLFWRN

[2] = target: T2, native human Bradykinin B1 receptor (Homo sapiens, UniProt P46663); experiment: Calcium flux Assay (FLIPR) with human fibroblasts expressing Bradykinin B1 receptor (hB1 IMR-90); settings: IMR-90 human fibroblasts expressing native Bradykinin B1 receptor
T2 construct: which express native human Bradykinin B1 receptor after induction with human IL-10; Coriell Institute; host or cells: IMR-90 human foetal lung fibroblasts, cytokine-induced
T2 sequence (P46663 1-353): T1 sequence (P46663 1-353)
How it was run: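 IMR-90 human foetal lung fibroblasts induced with 0.35 ng/mL […] for 3 h, Fluo-4/AM-loaded, preincubated with compound (8 concentrations, triplicate) for 30 min at 28 °C, then challenged with Lys-(Des-Arg)-bradykinin at EC90. Ca2+ fluorescence was read at 538 nm; full inhibition set by 20 µM Lys-(Des-Arg-Leu)-bradykinin; IC50 derived.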

[3] = in absence of 0.1% BSA, read-out: hB1 free IC50
[4] = in presence of 0.1% BSA, read-out: hB1 IC50

Row | Structure (SMILES) | IC50 (IL-8 secretion) [nM] | IC50 (IL-6 secretion) [nM] | IC50 [1, 3] [nM] | IC50 [2] [nM] | IC50 [1, 4] [nM]
1 | O=C(Nc1ccc(-n2ccc(CC(F)(F)F)n2)c(-c2nnn[nH]2)c1)C1(c2ccc(C(F)(F)F)cc2F)CC1 [Example 389, 1-[2-fluoro-4-(trifluoromethyl)phenyl]-N-{3-(1H-tetrazol-5-yl)-4-[3-(2,2,2-trifluoroethyl)-1H-pyrazol-1-yl]phenyl}cyclo-propanecarboxa-mide] | 258 | 253 | 11 |  | 
2 | CC(C)(C)c1ccn(-c2ccc(NC(=O)C3(c4ccc(C(F)(F)F)cc4F)CC3)cc2-c2nnn[nH]2)n1 [Example 380, N-[4-(3-tert-Butyl-1H-pyrazol-1-yl)-3-(1H-tetrazol-5-yl)phenyl]-1-[2-fluoro-4-(trifluoromethyl)phenyl]cyclopro-panecarboxamide] | 345 | > 10000 | 30.8 |  | 
3 | CN(C)c1ccc(-c2ccc(NC(=O)C3(c4cccc(Cl)c4F)CC3)cc2-c2nnn[nH]2)cn1 [Example 168, 1-(3-chloro-2-fluorophenyl)-N-{4-[6-(dimethylamino)pyridin-3-yl]-3-(1H-tetrazol-5-yl)phenyl} cyclopropane-carboxamide] |  |  | 58.6 | 27.7 | 88.1
4 | Cc1cncc(-c2ccc(NC(=O)C3(c4cccc(Cl)c4)CC3)cc2-c2nnn[nH]2)c1 [Example 326, 1-(3-chlorophenyl)-N-[4-(5-methylpyridin-3-yl)-3-(1H-tetrazol-5-yl)phenyl]cyclopro-panecarboxa-mide] |  |  | 20 | 45.2 | 22.3
5 | CC(C)(C)c1cn(-c2ccc(NC(=O)C3(c4ccc(OC(F)(F)F)cc4F)CC3)cc2-c2nnn[nH]2)cn1 [Example 404, N-[4-(4-tert-butyl-1H-imidazol-1-yl)-3-(1H-tetrazol-5-yl)phenyl]-1-[2-fluoro-4-(trifluoromethoxy)phenyl]cyclo-propanecarboxa-mide] | 59 | 69 | 6.36 |  | 
6 | COc1cc(-c2ccc(NC(=O)C3(c4cccc(Cl)c4)CC3)cc2-c2nnn[nH]2)ccc1C(F)(F)F [Example 233, 1-(3-chlorophenyl)-N-[3′-methoxy-2-(1H-tetrazol-5-yl)-4′-(trifluoromethyl)biphenyl-4-yl]cyclopropane carboxamide] |  |  | 18.9 | 35.2 | 68.6
7 | CCOc1ncc(-c2ccc(NC(=O)C3(c4cccc(Cl)c4)CC3)cc2-c2nnn[nH]2)cn1 [Example 184, 1-(3-chlorophenyl)-N-[4-(2-ethoxypyrimidin-5-yl)-3-(1H-tetrazol-5-yl)phenyl] cyclopropane-carboxamide] |  |  | 24.6 | 22.3 | 50.5
8 | CC(C)Oc1ccc(-c2ccc(NC(=O)C3(c4cccc(Cl)c4)CC3)cc2-c2nnn[nH]2)cn1 [Example 148, 1-(3-chlorophenyl)-N-[4-(6-isopropoxy-pyridin-3-yl)-3-(1H-tetrazol-5-yl)phenyl] cyclopropane-carboxamide] |  |  | 1.94 | 18.5 | 20
9 | COc1ccc(-c2ccc(NC(=O)C3(c4cc(Cl)ccc4F)CC3)cc2-c2nnn[nH]2)cc1OC [Example 17, 1-(5-chloro-2-fluorophenyl)-N-[3′,4′-dimethoxy-2-(1H-tetrazol-5-yl)biphenyl-4-yl]cyclopropane carboxamide] |  |  |  | 263 | 68.5
10 | COc1ccc(-c2ccc(NC(=O)C3(c4ccc(Cl)cc4F)CC3)cc2-c2nnn[nH]2)cc1OC [Example 18, 1-(4-chloro-2-fluorophenyl)-N-[3′,4′-dimethoxy-2-(1H-tetrazol-5-yl)biphenyl-4-yl]cyclopropane carboxamide] |  |  |  | 27.4 | 40.2
11 | COCc1ccc(-c2ccc(NC(=O)C3(c4ccc(F)cc4F)CC3)cc2-c2nnn[nH]2)cn1 [Example 127, 1-(2,4-difluorophenyl)-N-{4-[6-(methoxymethyl)pyridin-3-yl]-3-(1H-tetrazol-5-yl)phenyl} cyclopropane-carboxamide] |  |  | 88.6 | 27.9 | 90.9
12 | O=C(Nc1ccc(-c2ccc(C(F)F)nc2)c(-c2nnn[nH]2)c1)C1(c2ccc(C(F)(F)F)cc2F)CC1 [Example 259, N-{4-[6-(difluoromethyl)pyridin-3-yl]-3-(1H-tetrazol-5-yl)phenyl}-1-[2-fluoro-4-(trifluoromethyl)phenyl]cyclopro-panecarboxamide] |  |  | 3.52 | 10.6 | 
13 | CCOc1ccc(-c2ncc(NC(=O)C3(c4cccc(Cl)c4)CC3)cc2-c2nnn[nH]2)cn1 [Example 218, 1-(3-chlorophenyl)-N-[6′-ethoxy-3-(1H-tetrazol-5-yl)-2,3′-bipyridin-5-yl]cyclopropane carboxamide] |  |  | 264 | 31.6 | 75
14 | CCOc1ccc(-c2ccc(NC(=O)C3(c4ccc(F)c(C)c4)CC3)cc2-c2nnn[nH]2)cn1 [Example 102, N-[4-(6-ethoxypyridin-3-yl)-3-(1H-tetrazol-5-yl]phenyl]-1-(4-fluoro-3-methylphenyl) cyclopropane-carboxamide] |  |  |  | 21 | 34.8
15 | O=C(Nc1ccc(-c2ccc(C(F)F)nc2)c(-c2nnn[nH]2)c1)C1(c2cccc(Cl)c2)CC1 [Example 260, 1-(3-chlorophenyl)-N-{4-[6-(difluoromethyl)pyridin-3-yl]-3-(1H-tetrazol-5-yl)phenyl}cyclopro-panecarboxa-mide] |  |  | 18.8 | 14.9 | 
16 | Cc1cc(-c2c(F)cc(NC(=O)C3(c4ccc(C(F)(F)F)cc4F)CC3)cc2-c2nnn[nH]2)ccn1 [Example 265, N-[3-fluoro-4-(2-methylpyridin-4-yl)-5-(1H-tetrazol-5-yl)phenyl]-1-[2-fluoro-4-(trifluoromethyl)phenyl]cyclopro-panecarboxamide] |  |  | 2.63 | 2.28 | 
17 | COc1ccc(-c2ccc(NC(=O)C3(C4CCC(C)(C)CC4)CC3)cc2-c2nnn[nH]2)cc1OC [Example 56, N-[3′,4′-dimethoxy-2-(1H-tetrazol-5-yl)biphenyl-4-yl]-1-(4,4-dimethyl-cyclohexyl) cyclopropane-carboxamide] |  |  | 15.3 | 20.2 | 21.7
18 | COCc1ccc(-c2ccc(NC(=O)C3(c4ccc(C(F)(F)F)cc4)CC3)cc2-c2nnn[nH]2)cn1 [Example 126, N-{4-[6-(methoxymethyl)pyridin-3-yl]-3-(1H-tetrazol-5-yl)phenyl}-1-[4-(trifluoromethyl)phenyl] cyclopropane-carboxamide] |  |  |  | 13.1 | 21.9

Reference: patent publication US20210317092A1 (BAYER PHARMA AKTIENGESELLSCHAFT, priority 2016, published 2021)
